{"source": "patent US20230059087A1", "about": "“CANNABIDIOL DERIVATIVES, PREPARATION METHOD THEREOF AND USE THEREOF” (CHENGDU BAIYU PHARMACEUTICAL CO., LTD., priority 2020, published 2023)", "key": {"in vivo": {"experiment": "in vivo", "details": "SD, rat, po, 50 mg/kg", "experimental": "(§1) Healthy adult SD rats (n=3 per group) were fasted overnight (free access to water), and then were administrated the drugs by intragastric administration (i.g.) (50 mg/kg). 0.1 mL of blood was collected from the jugular venous plexus of the rats at 15 minutes, 30 minutes, 1 hour, 2 hours, 4 hours, 6 hours, 8 hours, 24 hours after administration. All blood samples were anticoagulated with K2EDTA, then centrifuged at 3500 rpm at 5° C. for 10 minutes to separate plasma, and stored at −20° C. for test. Parent drug concentration in plasma was determined by LC/MS/MS method."}, "[1]": {"experiment": "Pharmacokinetics in rats after intragastric administration", "details": "SD, rat, plasma, po, 50 mg/kg", "experimental": "as §1"}}, "data": [{"smiles": "[2H]C([2H])([2H])C1=C[C@H](c2c(O)cc(CCC)cc2O)C(C(=C)C)CC1", "note": "(stereo in doubt) [Example 3, 5′-(methyl-d3)-2′-(prop-1-en-2-yl)-4-propyl-1′,2′,3′,4′-tetrahydro-[1,1′-biphenyl]-2,6-diol]", "values": [{"measurement": "AUC(0-inf)", "setting": "in vivo", "result": 4480, "unit": "ng·h/mL"}, {"measurement": "AUC(0-t)", "setting": "in vivo", "result": 4230, "unit": "ng·h/mL"}, {"measurement": "Cmax", "setting": "in vivo", "result": 795, "unit": "ng/mL"}, {"measurement": "Tmax", "setting": "in vivo", "result": 2.1, "unit": "h"}, {"measurement": "half-life", "setting": "in vivo", "result": 4.9, "unit": "h"}]}, {"smiles": "C=C(C)[C@@H]1CCC(C)=C[C@H]1c1c(O)cc(CCCCC)cc1O", "note": "[CBD, cannabidiol]", "values": [{"measurement": "AUC(0-inf)", "setting": "[1]", "result": 4500, "unit": "ng·h/mL"}, {"measurement": "AUC(0-t)", "setting": "[1]", "result": 4460, "unit": "ng·h/mL"}, {"measurement": "Cmax", "setting": "[1]", "result": 784, "unit": "ng/mL"}, {"measurement": "Tmax", "setting": "[1]", "result": 2, "unit": "h"}, {"measurement": "half-life", "setting": "[1]", "result": 4.8, "unit": "h"}]}, {"smiles": "[2H]C([2H])=C([C@@H]1CCC(C([2H])([2H])[2H])=C[C@H]1c1c(O)cc(CCCCC)cc1O)C([2H])([2H])[2H]", "note": "[Example 7, (1′R,2′R)-5′-(methyl-d3)-4-pentyl-2′-(prop-1-en-2-yl-d5)-1′,2′,3′,4′-tetrahydro-[1,1′-biphenyl]-2,6-diol]", "values": [{"measurement": "AUC(0-inf)", "setting": "[1]", "result": 6290, "unit": "ng·h/mL"}, {"measurement": "AUC(0-t)", "setting": "[1]", "result": 5830, "unit": "ng·h/mL"}, {"measurement": "Cmax", "setting": "[1]", "result": 901, "unit": "ng/mL"}, {"measurement": "Tmax", "setting": "[1]", "result": 2.2, "unit": "h"}, {"measurement": "half-life", "setting": "[1]", "result": 6.5, "unit": "h"}]}, {"smiles": "[2H]C([2H])([2H])C1=C[C@@H](c2c(O)cc(CCCCCCC)cc2O)[C@H](C(=C)C)CC1", "note": "[Example 9, (1′R,2′R)-4-heptyl-5′-(methyl-d3)-2′-(prop-1-en-2-yl)-1′,2′,3′,4′-tetrahydro-[1,1′-biphenyl]-2,6-diol]", "values": [{"measurement": "AUC(0-inf)", "setting": "[1]", "result": 6480, "unit": "ng·h/mL"}, {"measurement": "AUC(0-t)", "setting": "[1]", "result": 6220, "unit": "ng·h/mL"}, {"measurement": "Cmax", "setting": "[1]", "result": 823, "unit": "ng/mL"}, {"measurement": "Tmax", "setting": "[1]", "result": 2, "unit": "h"}, {"measurement": "half-life", "setting": "[1]", "result": 7.9, "unit": "h"}]}, {"smiles": "[2H]C([2H])([2H])C1=C[C@@H](c2c(O)cc(CCCCC)cc2O)[C@H](C(=C)C)CC1([2H])[2H]", "note": "[Example 13, (1′R,2′R)-5′-(methyl-d3)-4-pentyl-2′-(prop-1-en-2-yl)-1′,2′,3′,4′-tetrahydro-[1,1′-biphenyl]-4′,4′-d2-2,6-diol]", "values": [{"measurement": "AUC(0-inf)", "setting": "[1]", "result": 6180, "unit": "ng·h/mL"}, {"measurement": "AUC(0-t)", "setting": "[1]", "result": 5980, "unit": "ng·h/mL"}, {"measurement": "Cmax", "setting": "[1]", "result": 871, "unit": "ng/mL"}, {"measurement": "Tmax", "setting": "[1]", "result": 2, "unit": "h"}, {"measurement": "half-life", "setting": "[1]", "result": 6, "unit": "h"}]}, {"smiles": "[2H]C([2H])(O)C1=C[C@@H](c2c(O)cc(CCCCC)cc2O)[C@H](C(=C)C)CC1([2H])[2H]", "note": "[Example 16]", "values": [{"measurement": "AUC(0-inf)", "setting": "[1]", "result": 5630, "unit": "ng·h/mL"}, {"measurement": "AUC(0-t)", "setting": "[1]", "result": 5490, "unit": "ng·h/mL"}, {"measurement": "Cmax", "setting": "[1]", "result": 860, "unit": "ng/mL"}, {"measurement": "Tmax", "setting": "[1]", "result": 1.5, "unit": "h"}, {"measurement": "half-life", "setting": "[1]", "result": 5.8, "unit": "h"}]}, {"smiles": "[2H]C([2H])([2H])C1=C[C@H](c2c(O)cc(CCCCC)c(C(=O)O)c2O)[C@@H](C(=C)C)CC1", "note": "[Example 23]", "values": [{"measurement": "AUC(0-inf)", "setting": "[1]", "result": 8230, "unit": "ng·h/mL"}, {"measurement": "AUC(0-t)", "setting": "[1]", "result": 6980, "unit": "ng·h/mL"}, {"measurement": "Cmax", "setting": "[1]", "result": 977, "unit": "ng/mL"}, {"measurement": "Tmax", "setting": "[1]", "result": 1.75, "unit": "h"}, {"measurement": "half-life", "setting": "[1]", "result": 6.5, "unit": "h"}]}]}
